Where “and” joins values, the source holds several entries; their conditions need not be identical. Equal values may be shown once.
Experiments:
[1] = test system: Bovine Submaxillary Mucin (BSM); test: Loading capacity of BSM glycoprotein for hydrophobic ligands (ligand uptake); type: binding; settings: for BSM NBL (average number of bound ligands per BSM monomer): LUP multiplied by BSM monomer-to-ligand molecular weight ratio; for BSM LUP (ligand uptake percentage, ligand-to-BSM weight ratio): extracted ligand (hydrolysis-extraction, UV-vis) divided by BSM protein (PAS assay)
Description: In order to determine the loading capacity of BSM glycoprotein for the examined ligands, elemental analysis measurements were preformed. The carbon content of each complex (in the case of C60 and MWNT containing complexes) was compared to the carbon content found in the native BSM. This was used to determine the amount of ligand in the complex and by that, the mucin-ligand weight ratio (ligand uptake percentage—LUP, Table 1).
In this procedure, the amount of the BSM protein in the mucin complex was analyzed by a periodic acid/Schiff (PAS) assay.
In more detail, in order to determine the amount of C60, a hydrolysis-extraction process was used which included heating of the complex in a heterogeneous mixture of hydrochloric acid and chloroform at 80° C., in a sealed vessel, and then the amount of a chloroform-extracted ligand was determined by UV-vis spectroscopy.
Additional calculation determined the average number of bound ligand (NBL) per BSM monomer by multiplication of the LUP value by the BSM monomer-to-ligand molecular weight ratio (Eq. 2).
In order to ascertain the capacity of BSM glycoprotein for various ligands, the amounts of Ant, Bap and Cor ligands in corresponding BSM complexes were determined. The amount of the BSM protein in each BSM complex was analyzed by a periodic acid/Schiff (PAS) assay.
In order to determine the amount of ligand in each complex, the above-described hydrolysis-extraction process was employed and determined the amount of chloroform-extracted ligand by UV-vis spectroscopy.
The LUP values were calculated by dividing the amount of the extracted ligand by the amount of the BSM protein present in the complex. […] The average number of bound ligands (NBL) per BSM monomer was also calculated by multiplication of the LUP value by the BSM monomer-to-ligand molecular weight ratio, as discussed above.
(§1) To a solution of BSM or deglycosylated BSM protein (4 mg mL^−1, 1.5 mL) in sodium phosphate buffer (2 mM, pH 7.2) a solid ligand (1 mg) was added at room temperature and the mixture was stirred at 500-700 rpm for 48 hrs. After that time, the reaction mixture was filtered through a 0.45 μm filter and the solution was loaded on a Sephadex G-25 gel-permeation column (Pharmacia Biotech). Protein complexes were eluted with a sodium phosphate buffer (20 mM, pH 7.2) and elution was monitored by UV-vis spectroscopy.
(§2) The amount of BSM or deglycosylated BSM protein in complexes was determined by using a standard periodic acid/Schiff assay (Sigma-Aldrich). The amount of a ligand in each complex was determined by UV-vis spectroscopy after protein hydrolysis and quantitative extraction of the ligand by chloroform. To a sample of complex in a sodium phosphate buffer (1 mL, 20 mM, pH 7.2), chloroform (1 mL) and hydrochloric acid (1 mL, 12 M) were added at room temperature. The reaction mixture was sealed in a glass pressure vessel and heated at 80° C. with vigorous stirring for 3 hrs. After cooling to a room temperature, the organic phase containing extracted ligand was analyzed by UV-vis spectroscopy.

[2] = test system: deglycosylated form of BSM (dBSM); test: Loading capacity of deglycosylated BSM (dBSM) for hydrophobic ligands; type: binding, bovine; settings: for dBSM NBL (number of bound ligands per dBSM monomer) / dBSM UP (%): deglycosylated BSM
Description: To evaluate this assumption, a deglycosylated form of BSM (dBSM) was prepared and repeated binding experiments with this modified protein were carried out. Complexes of C60 with dBSM were prepared as described above for the complexation with BSM.
dBSM was prepared by base-catalyzed β-elimination of periodate-oxidized glycans, using method reported by Kim and coworkers.
A deglycosylated form of BSM (dBSM) was prepared and the binding experiments with this protein were repeated. Complexes of Ant, Bap and Cor ligands with dBSM were prepared as described above for the complexation with BSM. dBSM was prepared as described above in the context of fullerene, nanotubes, and inorganic nanostructures.
A solution of BSM protein (100 mg) in NaOH (0.1 M, 10 mL) was stirred at room temperature for 30 min. The resulting solution was cooled to 4° C. NaIO4 (100 mM) in acetate buffer (100 mM, pH 4.5) was added and the mixture was stirred overnight at 4° C. After that time, glycine (200 mg) was added and the reaction mixture was allowed to warm to room temperature and was stirred for 30 min. NaOH (1.0 M, 1 mL) was added and the solution was stirred for an additional 30 min. The resulting solution was dialyzed against deionized water overnight and was then centrifuged and lyophilized. The degree of deglycosylation was measured by using a standard periodic acid/Schiff assay (Sigma-Aldrich).
as §1, §2

[3] = Binding/dissolution of hydrophobic ligands by oligosaccharide: starch; settings: dissolved ligand divided by amount of oligosaccharide
Description: (§3) The subsequent series of complementary experiments was designed to examine capabilities of different size oligosaccharides to bind selected hydrophobic ligands.
(§4) Representative oligosaccharides, including β-cyclodextrin, starch, arabic acid and lactose, were incubated with C60, according to the described above protocol for the BSM complexes preparation. […] Therefore, it is believed that interactions between the saccharide residues and the polypeptide backbone in a sugar-substituted polypeptide dictate certain arrangements of the saccharide moieties in space, and these arrangements play a role in the complexation of various hydrophobic materials.
(§5) The subsequent series of complementary experiments was designed to examine capabilities of different size oligosaccharides to bind selected hydrophobic ligands. Representative oligosaccharides, including β-cyclodextrin, starch, arabic acid and lactose, were incubated with Ant, Bap and Cor ligands, according to the described above protocol for the BSM complexes preparation. The LUP values were calculated by dividing the amount of the dissolved ligand by the amount of the oligosaccharide present in the complex (if formed). No clear preference was for binding of particular ligands to certain oligosaccharides. In comparison to BSM, the dissolution capability of arabic acid was drastically lower for all tested ligands. It was practically negligible in the cases of lactose, β-cyclodextrin and starch (Table 1).

[4] = Binding/dissolution of hydrophobic ligands by oligosaccharide: β-cyclodextrin; settings: dissolved ligand divided by amount of oligosaccharide
Description: as §3, §4
as §5, with “It was practically negligible in the cases of lactose, β-cyclodextrin and starch (Table 1).” left out

[5] = Incubation of representative oligosaccharides with C60, detection in solution by UV-vis or SEC-HPLC; type: physicochemical; settings: β-cyclodextrin, starch, arabic acid and lactose
Description: as §3, §4

[6] = Binding/dissolution of hydrophobic ligands by oligosaccharide: arabic acid; settings: dissolved ligand divided by amount of oligosaccharide
Description: as §3, §4, §5

Structure (SMILES) | average number of bound ligand (NBL) per BSM monomer [1] | BSM NBL (average number of bound ligands per BSM monomer) [1] | BSM LUP (ligand uptake percentage, ligand-to-BSM weight ratio) [1] | uptake capacity of dBSM, ligands per monomer [2] | dBSM NBL (number of bound ligands per dBSM monomer) [2] | dBSM UP (%) [2] | Starch LUP [3] [%] | β-Cyclodextrin LUP [4] [%] | C60 detected in the solution after incubation with oligosaccharides [5] | Arabic Acid LUP [6] [%] | BSM LUP (ligand uptake percentage, ligand-to-BSM weight ratio) ([1]; listed as Coronene) [%]
c12c3c4c5c1c1c6c7c2c2c8c3c3c9c4c4c%10c5c5c1c1c6c6c%11c7c2c2c7c8c3c3c8c9c4c4c9c%10c5c5c1c1c6c6c%11c2c2c7c3c3c8c4c4c9c5c1c1c6c2c3c41 [Ligand C60, C60] | 40 ligands per monomeric unit of BSM | 36 ± 6 | 15.1% and 15.1 ± 2.4% | 2 ligand molecules per monomeric unit | 1.9 ± 0.1 | 1.4% and 1.41 ± 0.28% | 0.35 ± 0.07 | 0.12 ± 0.02 | no C60 was detected |  | 
c1ccc2c(c1)cc1ccc3cccc4ccc2c1c34 [Bap, benzo[a]pyrene] |  | 36 ± 8 | 5.4 ± 1.1% |  | 1.2 ± 0.2 | 0.23 ± 0.05% | 0.11 ± 0.02 |  |  | 0.09 ± 0.02 | 
c1ccc2cc3ccccc3cc2c1 [Ant, anthracene] |  | 43 ± 9 | 4.5% and 4.5 ± 0.9% |  | 2.2 ± 0.3 | 0.28 ± 0.06% |  |  |  | 0.56 ± 0.11 | 
c1cc2ccc3ccc4ccc5ccc6ccc1c1c2c3c4c5c61 [Cor, coronene] |  | 44 ± 9 | 7.8 ± 1.5% |  | 2.1 ± 0.2 | 0.61 ± 0.12% | 0.18 ± 0.04 |  |  | 0.18 ± 0.04 | 7.7
